These results are taken from PubChem BioAssay (NCI).

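Growth conditions: 96-well plates. Treatment: test compound, 48 hours, 5 concentrations. Analysis: linear interpolation between bracketing concentrations; unreached endpoints set to highest concentration. GI50: concentration for 50% inhibition of growth. TGI is the concentration that stops growth completely.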

What all share (experiment): inhibition of tumour cell growth, NCI panel, 48 h
Assay [1] concerns HCC-2998 colon.
Assay [2] deals with RPMI-8226 leukemia.
Assay [3] has as its system SK-MEL-28 melanoma.
Assay [4] concerns NCI-H522 lung.
The test system of assay [5] is K-562 leukemia.
Assay [6] concerns NCI-H460 lung.
In assay [7] the test system is UO-31 renal.
For assay [8], the system named is NCI-H23 lung.
For assay [9], the system named is RXF 393 renal.
The test system of assay [10] is SW-620 colon.

With `COC(=O)Nc1nc2cc3c(cc2s1)OCCO3`, the GI50 in assay [1], in assay [2], in assay [3], in assay [4], in assay [5] and in assay [6] was greater than 50 µM each time. In addition, the GI50 in [7], in assay [8], in [9] and in assay [10] was greater than 50 µM in each case. Moreover, the TGI in assay [1], in assay [2], in assay [3], in [4], in assay [5] and in assay [6] was greater than 50 µM in each case. Also, the TGI in [7], in assay [8], in assay [9] and in assay [10] was greater than 50 µM in each case.

As to `O=C(O)CCCCn1cnc2c(=S)nc[nH]c21`, the TGI in [1], in assay [2], in assay [3], in assay [4], in [5] and in assay [6] was greater than 100 µM throughout. In addition, the TGI in [7], in assay [8], in assay [9] and in assay [10] was greater than 100 µM each time.

Take `Cc1cc(-c2nc(-c3ccc(OC(F)(F)F)cc3)no2)nn1Cc1ccnc(N2CCN(C3CC3)CC2)c1`: the GI50 in assay [1] was 7.05 µM; in assay [2], 0.582 µM; in assay [3], 3.6 µM; in [4] it was 2.68 µM; in [5], less than 0.01 µM; in assay [6], 4.94 µM. Further, the GI50 is 4.4 µM in assay [7], less than 0.01 µM in assay [8], greater than 27.9 µM in assay [9] and greater than 34.5 µM in assay [10]. Also, the TGI was 24.5 µM in assay [1]; greater than 58.3 µM in assay [2]; greater than 40.2 µM in assay [3]; 58.1 µM in assay [4]; greater than 100 µM in assay [5]; 55.3 µM in assay [6]. Moreover, the TGI in [7] was greater than 100 µM; in assay [8], greater than 86.3 µM; in assay [9], greater than 75.6 µM; in assay [10], greater than 68.7 µM.

As to `Nc1ccccc1NC(=O)c1ccc(CN2CCC/C(=C\c3cccc(Cl)c3)C2=O)cc1`, the GI50 is 1.18 µM in assay [1]; 0.921 µM in assay [2]; 1.16 µM in [3]; 0.225 µM in assay [4]; 0.0399 µM in [5]; 0.0962 µM in [6]. Also, the GI50 in [7] is 1.4 µM; in assay [8] it was 0.342 µM; in [9], 0.277 µM; in [10] it was 0.0539 µM. Further, the TGI in assay [1] was 5.7 µM; in [2], 4.58 µM; in assay [3] it was 58.9 µM; in assay [4], 1.06 µM; in assay [5], greater than 100 µM; in [6] it was greater than 100 µM. Moreover, the TGI was 6.14 µM in assay [7], 24.2 µM in assay [8], 5.23 µM in assay [9] and greater than 100 µM in assay [10].

Turning to `CC[CH2][Sn]([Cl])([Cl])[CH2]CC`, the GI50 in assay [1] was 10.1 µM; in [2] it was 2.03 µM; in assay [3], 11.4 µM; in assay [4], 0.354 µM; in assay [5], 3.33 µM; in [6], 17.2 µM. The GI50 in assay [7] was 4.47 µM; in assay [8] it was 9.13 µM; in assay [9], 6.96 µM; in [10] it was 2.61 µM. Also, the TGI was 22 µM in [1]; 7.77 µM in assay [2]; 23.7 µM in assay [3]; 1.62 µM in assay [4]; greater than 100 µM in assay [5]; 34.3 µM in assay [6]. Also, the TGI is 19.5 µM in [7], 22 µM in assay [8], 20.6 µM in assay [9] and 11.5 µM in [10].

As for `CNC(C)C(=O)N[C@H](C(=O)N1CCC[C@@H]1CN(CCc1ccccc1)C(=O)C(F)(F)F)[C@H](C)OCC#CC#CCO[C@H](C)[C@H](NC(=O)[C@H](C)NC)C(=O)N1CCC[C@H]1CN(CCc1ccccc1)C(=O)C(F)(F)F` (stereo not given in full), the GI50 is 1.45 µM in [1]; 1.53 µM in assay [2]; 1.54 µM in assay [3]; 0.724 µM in assay [4]; 0.366 µM in [5]; 1.83 µM in [6]. In addition, the GI50 in [7] is 2.14 µM; in assay [8], 1.16 µM; in [9] it was 0.0771 µM; in assay [10], 1.63 µM. Also, the TGI amounted to 3.04 µM in assay [1]; 3.52 µM in [2]; 2.96 µM in assay [3]; 2.18 µM in assay [4]; 1.49 µM in [5]; 3.59 µM in assay [6]. The TGI was 3.98 µM in [7], 2.68 µM in assay [8], 0.486 µM in [9] and 3.16 µM in assay [10].

`COc1ccc(/C=C\c2cc(OC)c(OC)c(OC)c2)cc1OC(=O)c1cccc(Cn2cc(CCOC(=O)c3cccc(Cn4nnc5c4C(=O)c4ccccc4C5=O)c3)nn2)c1`: the GI50 is 0.0362 µM in assay [1]; less than 0.01 µM in assay [2]; 11.7 µM in assay [3]; 0.0102 µM in assay [4]; less than 0.01 µM in assay [5]; less than 0.01 µM in assay [6]. Further, the GI50 in assay [7] is 0.16 µM; in assay [8], less than 0.01 µM; in assay [9], less than 0.01 µM; in assay [10], less than 0.01 µM. Besides, the TGI is greater than 47.8 µM in [1]; greater than 100 µM in assay [2]; greater than 75.7 µM in assay [3]; greater than 100 µM in [5]; 12.6 µM in assay [6]; 79.5 µM in assay [7]. The figures for the TGI in assay [8], in [9] and in assay [10] were 18.3 µM, 13.6 µM and greater than 100 µM, respectively.

For `COC(=O)[C@H](CC(C)C)NC(=O)NC(=O)NC(=O)CI`, the GI50 in assay [1] is 11.4 µM; in assay [2], 2.92 µM; in [3] it was 5.64 µM; in [4], 1.67 µM; in [5] it was 1.91 µM; in [6], 18.7 µM. Also, the GI50 in assay [7] is 1.64 µM; in [8], 14.9 µM; in assay [9], 2.46 µM; in assay [10], 1.83 µM. The TGI was 24.2 µM in assay [1]; 7.75 µM in assay [2]; 19.1 µM in [3]; 3.2 µM in [4]; 4.6 µM in [5]; 41.5 µM in assay [6]. The TGI in assay [7] was determined as 3.13 µM; in assay [8] it was 32.2 µM; in assay [9] it was 6.54 µM; in [10], 3.53 µM.

`OC(COc1cccc2ccccc12)CN1CCN(c2ccccc2)CC1` (stereo not given): the GI50 is 16.5 µM in [1]; 17 µM in assay [2]; 17 µM in assay [3]; 14.4 µM in assay [4]; 13.7 µM in assay [5]; 15.9 µM in [6]. Further, the GI50 in assay [7] is 5.94 µM; in assay [8], 15.9 µM; in assay [9], 18.2 µM; in assay [10] it was 15.2 µM. Further, the TGI in assay [1] was determined as 30.7 µM; in assay [2], 42.9 µM; in assay [3] it was 31.6 µM; in [4] it was 29.2 µM; in [5], 34 µM; in assay [6], 31 µM. For the same compound, the TGI in [7] came to 20.4 µM; in assay [8], 31.9 µM; in assay [9] it was 32.9 µM; in assay [10], 30.1 µM.

For the compound `C=C(CS(=O)(=O)c1ccccc1)[P+](c1ccccc1)(c1ccccc1)c1ccccc1`, the TGI in assay [1] is 47.2 µM; in assay [2], 11.4 µM; in [3] it was 25.5 µM; in assay [4] it was 44.1 µM; in [5], 31.7 µM; in assay [6], 66 µM. Besides, the TGI came to 94.3 µM in assay [7], 62.7 µM in assay [8], 38.4 µM in assay [9] and 51.1 µM in [10].

As for `C/C(=N/NC(=O)C(N)=O)C(CC(C(=O)Nc1ccccc1C)/C(C)=N\NC(=O)C(N)=O)C(=O)Nc1ccccc1C` (stereo not given), the TGI in assay [1], in assay [2], in assay [3], in assay [4], in [5] and in assay [6] was greater than 100 µM throughout. In addition, the TGI in assay [7], in assay [8], in assay [9] and in assay [10] was greater than 100 µM in each case.

Regarding `CC(=O)OC1C(CCl)OC(N=[N+]=[N-])C(OC(C)=O)C1OC(C)=O` (stereo not given), the TGI in assay [1], in [2], in assay [3], in assay [4], in [5] and in assay [6] was greater than 100 µM throughout. For the same compound, the TGI in assay [7], in assay [8], in [9] and in assay [10] was greater than 100 µM throughout.

For `CC(=O)OCC1OC(OC2=C(CC=C(Cl)Cl)C(=O)c3ccccc3C2=O)C(OC(C)=O)C(OC(C)=O)C1OC(C)=O` (stereo not given), the GI50 in [1] is 6.96 µM; in assay [2], 2.05 µM; in assay [3], 3.93 µM; in [4] it was 2.17 µM; in [5], 1.06 µM; in assay [6], 12.5 µM. For the same compound, the GI50 in [7] is 1.44 µM; in assay [8], 13.2 µM; in assay [9], 2.53 µM; in assay [10] it was 1.74 µM. In addition, the TGI in assay [1] is 20.9 µM; in assay [2], 6.78 µM; in assay [3] it was 12.8 µM; in assay [4], 5.2 µM; in assay [5], greater than 100 µM; in assay [6], 34.4 µM. Further, the TGI amounted to 3.37 µM in [7], 36.8 µM in assay [8], 8.01 µM in assay [9] and 3.88 µM in assay [10].

As for `COC(=O)[C@@]1(C)CC[C@]2(C)CC[C@]3(C)C4=CC=C5C(=CC(=O)C(O)=C5C)[C@]4(C)CC[C@@]3(C)[C@@H]2C1`, the GI50 in [1] was 0.21 µM; in assay [2] it was 0.183 µM; in assay [3], 0.244 µM; in assay [4] it was 0.18 µM; in assay [5] it was 0.251 µM; in assay [6] it was 0.274 µM. Moreover, the GI50 in assay [7] is 0.127 µM; in assay [8], 0.235 µM; in assay [9] it was 0.176 µM; in assay [10], 0.165 µM. Further, the TGI worked out at 0.474 µM in assay [1]; 0.517 µM in assay [2]; 0.601 µM in [3]; 0.435 µM in [4]; 0.715 µM in assay [5]; 0.796 µM in assay [6]. Besides, the TGI in assay [7] is 0.261 µM; in assay [8] it was 0.637 µM; in assay [9] it was 0.33 µM; in [10], 0.414 µM.

As to `C#COc1cccc(Nc2ncnc3ncc(NC(=O)CCl)cc23)c1`, the GI50 in assay [1] is greater than 62.5 µM; in [2], greater than 19.8 µM; in [3] it was greater than 59.6 µM; in assay [4], greater than 17.9 µM; in assay [7], greater than 14 µM; in assay [8] it was greater than 62.5 µM. For the same compound, the GI50 in [9] was greater than 62.5 µM. Also, the TGI in assay [1] is greater than 62.5 µM; in assay [2] it was greater than 62.5 µM; in assay [3], greater than 62.5 µM; in assay [4] it was greater than 29.9 µM; in assay [5], greater than 62.5 µM; in [6] it was greater than 62.5 µM. Further, the TGI in assay [7] was greater than 33.2 µM; in [8], greater than 62.5 µM; in [9], greater than 62.5 µM; in [10] it was greater than 62.5 µM.

For `CC1OC(OC2CC(O)C3(CO)C4C(O)CC5(C)C(C6=CC(=O)OC6)CCC5(O)C4CCC3(O)C2)C(O)C(O)C1O` (stereo not given), the GI50 in [1] is 0.0606 µM; in assay [2], 0.0167 µM; in [3], 0.0646 µM; in assay [4] it was less than 0.0147 µM; in assay [5] it was less than 0.0198 µM; in assay [6] it was less than 0.0111 µM. For the same compound, the GI50 in [7] is less than 0.0124 µM; in [8], less than 0.0108 µM; in [9] it was less than 0.0129 µM; in assay [10], 0.02 µM. Also, the TGI in [1] is 0.204 µM; in assay [2] it was 0.206 µM; in assay [3], 0.251 µM; in [4], less than 0.0312 µM; in assay [6], 0.0174 µM; in [7], 0.0198 µM. Moreover, the values for the TGI in [8], in assay [9] and in assay [10] were less than 0.0142 µM, less than 0.0202 µM and 0.702 µM, respectively.
